{"source": "patent US10596145B2", "about": "“Heterocyclic flavone derivatives, compositions, and methods related thereto” (Emory University, priority 2012, dated 2020)", "key": {"[1]": {"assay": "Metabolite investigation of the methylated metabolites of 7,8-DHF", "procedure": "In order to increase the hydrophobicity, EU-B-related compounds were prepared by keeping the urea functional group. In metabolite investigation of the methylated metabolites of 7,8-DHF, it was discovered that that 7-methoxy-8-hydroxy metabolite is active. A methyl group was added on the urea group."}, "TrkB [2]": {"target": "T1, TrkB (Rattus norvegicus, UniProt Q63604)", "T1 construct": "endogenous in cells; host or cells: primary cortical neurons from E17 rat embryos", "T1 sequence (Q63604 32-821)": "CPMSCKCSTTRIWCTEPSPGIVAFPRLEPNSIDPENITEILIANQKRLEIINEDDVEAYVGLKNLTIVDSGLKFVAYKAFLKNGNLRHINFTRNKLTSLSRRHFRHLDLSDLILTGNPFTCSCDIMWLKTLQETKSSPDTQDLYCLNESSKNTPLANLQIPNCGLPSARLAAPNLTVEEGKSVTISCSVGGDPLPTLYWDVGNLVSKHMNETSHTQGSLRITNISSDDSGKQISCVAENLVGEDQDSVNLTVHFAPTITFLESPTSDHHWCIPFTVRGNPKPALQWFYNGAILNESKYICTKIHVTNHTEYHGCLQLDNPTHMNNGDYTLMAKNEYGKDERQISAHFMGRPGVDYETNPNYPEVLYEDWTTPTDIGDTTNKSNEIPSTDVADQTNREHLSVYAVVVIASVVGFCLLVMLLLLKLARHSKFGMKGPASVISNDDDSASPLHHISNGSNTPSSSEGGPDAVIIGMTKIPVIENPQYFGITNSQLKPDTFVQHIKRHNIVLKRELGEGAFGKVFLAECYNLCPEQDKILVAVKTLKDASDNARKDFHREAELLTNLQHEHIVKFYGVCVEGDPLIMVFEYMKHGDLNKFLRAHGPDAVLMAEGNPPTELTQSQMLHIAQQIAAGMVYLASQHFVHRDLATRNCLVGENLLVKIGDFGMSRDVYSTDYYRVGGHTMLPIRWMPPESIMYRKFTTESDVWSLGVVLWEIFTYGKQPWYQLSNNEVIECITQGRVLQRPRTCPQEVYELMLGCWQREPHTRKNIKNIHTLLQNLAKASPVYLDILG", "assay": "TrkB activation in primary cortical neurons (immunoblotting)", "format": "cell-based", "settings": "500 nM, 15 min", "procedure": "Primary cortical cultures from E17 rat embryos were treated with 500 nM of various synthetic flavone derivatives for 15 min. The cell lysates (20 μg) were analyzed by the immunoblotting.\nRat primary neurons were treated with 500 nM various indicated compounds from 15 min. The neuronal lysates ([…]) were analyzed with various antibodies.\n500 nM of different synthetic compounds were added to DIV 7 neurons for 15 min. The cell lysates were analyzed by immunoblotting with indicated p-Akt 473 antibodies.\nReplacing the 3′-dimethylamino group or 4′-morpholino group was tested for TrkB agonistic activity. To compare the TrkB activation by these compounds, primary cortical cultures were prepared and treated them with 500 nM of various compounds for 15 min and collected the cell lysates. […] The p-Akt ELISA analysis results were similar to the TrkB activation pattern (FIG. 2B, lower panel)."}, "TrkB [3]": {"target": "T2, TrkB (Mus musculus, UniProt P15209)", "T2 construct": "from tissue; host or cells: mouse brain (hippocampus, cortex), C57BL/6", "T2 sequence (P15209 32-821)": "as the sequence (Q63604 32-821) above, with M3T, T9S, T10A, I32V, K63R, G84S, T153M, I185L, T394S, N770S counted along it", "assay": "TrkB phosphorylation in mouse brain after oral administration (immunoblotting, immunohistochemistry)", "format": "in vivo", "procedure": "One mg/kg of various indicated compounds were orally administrated into C57 BL/6J mice and TrkB phosphorylation and its downstream signaling cascades including Akt and MAPK in the hippocampus of mouse brain were analyzed by immunoblotting at 4 h. […] The downstream p-Akt and p-MAPK activity coupled to the TrkB activation patterns.\nTime course assay with 4′-dimethylamino-7,8-imidazole flavone. One mg/kg of compound (i) and compound (m) were orally administrated into C57 BL/6J mice and TrkB phosphorylation and its downstream signaling cascades including Akt in mouse brain were analyzed by immunoblotting at various time points. TrkB activation by compound m peaked at 4 h, whereas the maximal TrkB activation by compound i in mouse brain occurred at 1-2 h. Arrows indicate the p-TrkB in mature glycosylated or unglycosylated forms (top panels). The downstream Akt activation pattern tightly correlated with the upstream TrkB activation.\n(§1) Male C57BL/6 mice aged of two months were administrated orally with 4′-DMA-7,8-DHF derivatives at a single dose of 1 mg/kg for 4 h. The control mice were injected with saline. The mice were sacrificed and brains were homogenated and ultracentrafuged. The supernatant (40 μg) was employed for SDS-PAGE and immunoblotting analysis with indicated antibodies, respectively. Male C57BL/6 mice aged of two months were administrated orally with compound (i) or (m) at the dose of 5 mg/kg/day each and compound o or p at the dose of 2.5 mg/kg/day each for 21 days. BrdU (100 mg/kg) was i. p. injected two hours before the TrkB agonist treated animals were sacrificed and the hippocampal section lysates were analyzed by immunoblotting with p-TrkB and total TrkB antibodies, p-AKT ELISA.\nBrain tissues were fixed in 4% paraformaldehyde overnight followed by paraffin embedding. Sections of 6 μm were cut. For immunohistochemical staining, brain sections were deparaffinized in xylene and rehydrated in graded alcohols. Endogenous peroxidase activity was blocked by 3% hydrogen peroxide for 5 min and all slides were boiled in 10 mM sodium citrate buffer (pH 6.0) for 10 min. Phosphorylated TrkB 816 and TrkB were detected using specific antibodies. Paraffin section were deparaffinized in xylene and rehydrated gradient ethanol solution. Samples were boiled in 10 mM sodium citrate buffer for 20 min for antigen retrieval purpose. Brain sections were incubated with anti-TrkB (BD Biosciences, San Jose, Calif.) 1:50, p-TrkB 1:300 dilution. Secondary antibody was applied using anti-rabbit-Alexa 594 (red), anti-mouse-fluorescein isothiocyanate (FITC) (green). DAPI (blue) was used for nuclear staining."}, "Akt": {"system": "Akt", "assay": "Downstream Akt activation in mouse brain (p-Akt immunoblotting, p-Akt 473 ELISA)", "format": "in vivo", "procedure": "PathScan Phospho-Akt1 (Ser473) Sandwich ELISA kit was purchased from Cell Signaling (Cat. #7160). 100 μl sample in sample diluent (supplied in the kit) was added to each well and incubated overnight at 4° C. After 4× wash with 200 ul wash buffer (supplied in the kit), 100 ul/well detection antibody was added and incubated for 1 hour at 37° C. After 4× wash, 100 μl of HRP-linked secondary antibody (supplied in the kit) was added and incubated for 30 minutes at 37° C. After a final wash, 100 μl of TMB substrate was added to each well and incubated for 10 minutes at 37° C. The reaction was stopped by adding 100 μl/well stop solution. Record the values of each well using microplate reader at 450 nm and 650 nm. The optical density was determined by the subtraction of the reading at 650 nm from the reading s at 450 nm.\nas §1"}, "C57BL/6J mice [4]": {"system": "C57BL/6J mice", "assay": "Forced swim test", "format": "in vivo, mouse", "settings": "2.5 mg/kg oral, 21 days", "procedure": "Male C57BL/6J mice (6 mice/group) were orally administrated by gavage with 5 mg/kg compound (m) or compound (i) and vehicle solvent saline for 21 days and subjected to a forced swim test (6 min, immobility recorded in the last 4 min). Data are presented as mean±SEM. (n=6, ***P<0.0001 vs vehicle, Student t-test).\nForced swim test. Male C57BL/6J mice (8 mice/group) were orally administrated by gavage with 2.5 mg/kg compound o or compound p and vehicle solvent saline for 21 days and subjected to a forced swim test (6 min, immobility recorded in the last 4 min). […] Data are presented as mean±SEM.\nAdult male mice (2-3 months old) were randomly submitted to a forced swim test without a preswim. Test compounds were orally administrated by gavage for 21 days. The mice were allowed to adapt to the test room for 2 days. The mice were placed in a clear glass cylinder with a diameter of 16 cm, half-filled with clear water at 24° C."}, "C57BL/6J mice [5]": {"system": "C57BL/6J mice", "assay": "Locomotor activity assay", "format": "in vivo, mouse", "settings": "2.5 mg/kg oral, 3 weeks", "procedure": "The above drug-treated mice were subjected locomotor activity at day 22. […] Data are presented as mean±SEM.\nLocomotor activity was assessed using an automated system (San Diego Instruments, La Jolla, Calif., USA) with photobeams that recorded ambulations (consecutive beam breaks). Drug-treated mice were placed in the locomotor chambers, and their activity was recorded for 2 h with 30 min interval."}, "HepG2 cells": {"system": "HepG2 cells", "assay": "In vitro cytotoxicity assay with HepG2 cells", "format": "cell-based", "settings": "micronucleus and comet assays", "procedure": "HepG2 cells were treated with various concentrations of flavonoids for 24 h. The drug-treated cells were subjected to trypan blue exclusive assay. Data are presented as mean±SEM. (n=3, ***P<0.0001 vs vehicle).\nIn vitro and in vivo ADMET (ADME plus toxicity) of certain compounds were examined. […] Micronuclei formation is an important endpoint in genotoxicity study. […] Next, a Comet assay was performed with 100 μM drug-treated HepG2 cells. As a positive control, etoposide, a topoisomerase inhibitor, which causes DNA strand breaks was used."}, "[6]": {"assay": "Human liver microsomal stability assay", "format": "in vitro ADME", "settings": "human liver microsomes, 1 h incubation", "text": "(§2) To explore these compounds' in vitro ADMET profiles, we conducted numerous in vitro assays."}, "[7]": {"assay": "Reactive metabolic screening assay", "format": "in vitro ADME", "settings": "liver microsomal lysates", "text": "as §2"}, "CYP1A2": {"target": "T3, CYP1A2 (Homo sapiens, UniProt P05177)", "T3 sequence (P05177 1-516)": "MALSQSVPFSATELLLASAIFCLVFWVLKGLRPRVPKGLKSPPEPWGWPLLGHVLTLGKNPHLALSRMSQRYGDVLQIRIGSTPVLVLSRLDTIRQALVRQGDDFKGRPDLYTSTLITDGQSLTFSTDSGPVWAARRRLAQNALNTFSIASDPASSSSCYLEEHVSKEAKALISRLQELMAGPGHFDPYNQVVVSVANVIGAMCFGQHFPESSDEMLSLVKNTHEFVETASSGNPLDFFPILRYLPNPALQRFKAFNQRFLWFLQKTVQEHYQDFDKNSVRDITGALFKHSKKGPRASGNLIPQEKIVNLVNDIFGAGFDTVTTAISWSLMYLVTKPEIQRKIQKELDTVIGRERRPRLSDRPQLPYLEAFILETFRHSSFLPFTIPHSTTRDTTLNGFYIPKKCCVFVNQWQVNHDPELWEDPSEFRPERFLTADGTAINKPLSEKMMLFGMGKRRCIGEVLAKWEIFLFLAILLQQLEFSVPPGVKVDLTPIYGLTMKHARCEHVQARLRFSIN", "assay": "CYP screen inhibition", "format": "in vitro ADME", "settings": "at 3 μM", "procedure": "At 30 μM, the inhibition patterns contained similar trends. To test the possible cardiovascular toxicity, hERG inhibition triggered by compound o was examined."}, "[8]": {"assay": "In vivo metabolism studies of 7,8-DHF", "text": "Among the modifications, glucuronidation and sulfation are thought to be responsible for the in vivo metabolism of the flavonoids. In addition, the O-methylated metabolites were detected in both the plasma and brain samples after oral administration. These modification pathways may explain the relatively short half-life of 7,8-DHF. Alteration of this labile group into the bioisosteric imidazole derivative escalates the PK profiles in compound o."}, "[9]": {"assay": "In vivo pharmacokinetic studies in mice", "parameters": "species or system mouse", "settings": "mice", "procedure": "For compound a, the standard dosage of 1 mg/kg via i.v. injection and 5 mg/kg for P.O. route was employed. […] Presumably, the dosage is too low for the in vivo PK assay. Thus, the doses of the tested compound o were increased. […] Moreover, the bioavailability is around 2% for compound o at a 10 mg/kg dosage.\nTwenty to thirty grams mice within the age of 6-8 weeks old were administrated with the indicated compounds i. v. or orally. At different time points (3, 10, 30, 60, 120, 240, 360 and 480 min), blood aliquots (300-400 μl) were collected in tubes coated with lithium heparin, mixed gently, then kept on ice and centrifuged at 2500×g for 15 min at 4° C., within 1 h of collection. The plasma was then harvested and kept frozen at −20° C. until further processing. For each time point, 3 mice/group were employed. The plasma samples were analyzed by HPLC."}}, "note": "“Also recorded” adds a separate entry of the source."}
{"smiles": "COc1ccc2c(=O)cc(-c3ccccc3)oc2c1O", "note": "[7-methoxy-8-hydroxy metabolite]", "values": [{"measurement": "activity of methylated metabolite", "setting": "[1]", "value": "is active"}]}
{"smiles": "CN(C)c1cccc(-c2cc(=O)c3ccc(O)c(O)c3o2)c1", "note": "[3′-dimethylamino-7,8-DHF]", "values": [{"measurement": "TrkB activation (p-TrkB immunoblotting)", "setting": "TrkB [2]", "value": "comparable activity as compound a"}]}
{"smiles": "O=c1cc(-c2ccc(N3CCCC3)cc2)oc2c1ccc1cc[nH]c12", "note": "[compound p, 2-(4-(pyrrolidin-1-yl)phenyl)pyrano[3,2-g]indol-4(9H)-one]", "values": [{"measurement": "TrkB activation (p-TrkB immunoblotting)", "setting": "TrkB [2]", "value": "higher activity than compound m"}, {"measurement": "TrkB phosphorylation after chronic treatment (immunoblotting)", "setting": "TrkB [3]; 2.5 mg/kg/day oral, 21 days", "value": "markedly activated TrkB receptor; also recorded: evidently elevated TrkB phosphorylation"}, {"measurement": "TrkB phosphorylation in hippocampus (immunohistochemistry, anti-p-TrkB 816)", "setting": "TrkB [3]; 2.5 mg/kg/day oral, chronic", "value": "elevated TrkB phosphorylation in hippocampus"}, {"measurement": "Akt activation (quantitative p-Akt ELISA)", "setting": "Akt; 2.5 mg/kg/day oral, 3 weeks", "value": "notably activated Akt"}, {"measurement": "immobility in forced swim test", "setting": "C57BL/6J mice [4]", "value": "but not compound p significantly decreased the immobility"}, {"measurement": "locomotor activity", "setting": "C57BL/6J mice [5]", "value": "neither compound o nor p altered the motion activity"}, {"measurement": "cytotoxicity or genotoxicity (overall conclusion)", "setting": "HepG2 cells", "value": "negligible cytotoxicity or genotoxicity"}, {"measurement": "remaining unchanged after incubation", "setting": "[6]", "value": 1.2, "unit": "%"}, {"measurement": "reactive metabolite / adduct formation", "setting": "[7]", "value": "formed numerous adducts"}, {"measurement": "CYP1A2 inhibition", "setting": "CYP1A2", "value": 37.4, "unit": "%"}]}
{"smiles": "O=c1cc(-c2ccc(N3CCCC3)cc2)oc2c1ccc1nc[nH]c12", "note": "[compound n, 8-(4′-(pyrrolidino-)phenyl)chromeno[7,8-d]imidazol-6(1H)-one]", "values": [{"measurement": "cytotoxicity or genotoxicity (overall conclusion)", "setting": "HepG2 cells", "value": "negligible cytotoxicity or genotoxicity"}]}
{"smiles": "O=c1cc(-c2ccccc2)oc2c(O)c(O)ccc12", "note": "[7,8-DHF, 7,8-dihdyroxyflavone]", "values": [{"measurement": "in vivo metabolic modifications", "setting": "[8]", "value": "subjected to oxidation, glucuronidation, sulfation and methylation"}]}
{"smiles": "CN(C)c1ccc(-c2cc(=O)c3ccc(O)c(O)c3o2)cc1", "note": "[compound a, 4′-DMA-7,8-DHF, reference compound]", "values": [{"measurement": "TrkB activation in mouse brain", "setting": "TrkB [3]; 1 mg/kg oral, hippocampus, at 4 h", "value": "activated the TrkB receptor; also recorded: strongest TrkB stimulatory effect"}, {"measurement": "downstream p-Akt and p-MAPK signalings", "setting": "Akt; 1 mg/kg oral, at 4 h", "value": "strongly activated"}, {"measurement": "AUClast", "setting": "[9]; 1 mg/kg i.v.", "value": "about 5930 min*ng/ml"}, {"measurement": "in vivo half-life, t1/2", "setting": "[9]; 1 mg/kg i.v.", "value": "around 9 min"}, {"measurement": "bioavailability", "setting": "[9]; 5 mg/kg P.O.", "value": "not measurable"}]}
{"smiles": "O=c1cc(-c2ccc(N3CCOCC3)cc2)oc2c(O)c(O)ccc12", "note": "[4′-morpholino-7,8-DHF]", "values": [{"measurement": "TrkB activation (p-TrkB immunoblotting)", "setting": "TrkB [2]", "value": "comparable activity as compound a"}]}
